Reference: patent US8247556B2, “Method for preparing 6-substituted-7-aza-indoles” (Amgen Inc., priority 2005, dated 2012)

Experiments:
[1] = tested on: VEGF-stimulated HUVEC proliferation (Human Umbilical Vein Endothelial cells); experiment: HUVEC Proliferation Assay; assay type: cell-based; conditions: VEGF 50 ng/mL, 72 h, CyQuant fluorescent dye, read-out: inhibited VEGF-stimulated HUVEC proliferation at a level
Experimental: Human Umbilical Vein Endothelial cells are purchased from Clonetics, Inc., as cryopreserved cells harvested from a pool of donors. These cells, at passage 1, are thawed and expanded in EBM-2 complete medium, until passage 2 or 3. The cells are trypsinized, washed in DMEM+10% FBS+antibiotics, and spun at 1000 rpm for 10 min. Prior to centrifugation of the cells, a small amount is collected for a cell count. After centrifugation, the medium is discarded, and the cells are resuspended in the appropriate volume of DMEM+10% FBS+antibiotics to achieve a concentration of 3×10^5 cells/mL. Another cell count is performed to confirm the cell concentration. The cells are diluted to 3×10^4 cells/mL in DMEM+10% FBS+antibiotics, and 100 μL of cells are added to a 96-well plate. The cells are incubated at 37° C. for 22 h.
Prior to the completion of the incubation period, compound dilutions are prepared. Five-point, five-fold serial dilutions are prepared in DMSO, at concentrations 400-fold greater than the final concentrations desired. 2.5 μL of each compound dilution are diluted further in a total of 1 mL DMEM+10% FBS+antibiotics (400× dilution). Medium containing 0.25% DMSO is also prepared for the 0 μM compound sample. At the 22 h time point, the medium is removed from the cells, and 100 μL of each compound dilution is added. The cells are incubated at 37° C. for 2-3 h.
During the compound pre-incubation period, the growth factors are diluted to the appropriate concentrations. Solutions of DMEM+10% FBS+antibiotics, containing either VEGF or bFGF at the following concentrations: 50, 10, 2, 0.4, 0.08, and 0 ng/mL are prepared. For the compound-treated cells, solutions of VEGF at 550 ng/mL or bFGF at 220 ng/mL for 50 ng/mL or 20 ng/mL final concentrations, respectively, are prepared since 10 μL of each will be added to the cells (110 μL final volume). At the appropriate time after adding the compounds, the growth factors are added. VEGF is added to one set of plates, while bFGF is added to another set of plates. For the growth factor control curves, the media on wells B4-G6 of plates 1 and 2 are replaced with media containing VEGF or bFGF at the varying concentrations (50-0 ng/mL). The cells are incubated at 37° C. for an additional 72 h.
At the completion of the 72 h incubation period, the medium is removed, and the cells are washed twice with PBS. After the second wash with PBS, the plates are tapped gently to remove excess PBS, and the cells are placed at −70° C. for at least 30 min. The cells are thawed and analyzed using the CyQuant fluorescent dye (Molecular Probes C-7026), following the manufacturer's recommendations. The plates are read on a Victor/Wallac 1420 workstation at 485 nm/530 nm (excitation/emission). Raw data are collected and analyzed using a 4-parameter fit equation in XLFit. IC50 values are then determined.

[2] = biological target: T1, CYP 3A4 (Homo sapiens, UniProt P08684); experiment: Human Liver Microsome CYP 3A4 Inhibition; assay type: in vitro ADME; conditions: human liver microsomes, midazolam substrate; read-out: inhibited CYP3A4 microsomes, IC50
T1 construct: followed by 222.2 ml of 20 mg/mL HLM (BD Gentest); tissue BD Gentest; host or cells: human liver microsomes
T1 sequence (P08684 whole entry): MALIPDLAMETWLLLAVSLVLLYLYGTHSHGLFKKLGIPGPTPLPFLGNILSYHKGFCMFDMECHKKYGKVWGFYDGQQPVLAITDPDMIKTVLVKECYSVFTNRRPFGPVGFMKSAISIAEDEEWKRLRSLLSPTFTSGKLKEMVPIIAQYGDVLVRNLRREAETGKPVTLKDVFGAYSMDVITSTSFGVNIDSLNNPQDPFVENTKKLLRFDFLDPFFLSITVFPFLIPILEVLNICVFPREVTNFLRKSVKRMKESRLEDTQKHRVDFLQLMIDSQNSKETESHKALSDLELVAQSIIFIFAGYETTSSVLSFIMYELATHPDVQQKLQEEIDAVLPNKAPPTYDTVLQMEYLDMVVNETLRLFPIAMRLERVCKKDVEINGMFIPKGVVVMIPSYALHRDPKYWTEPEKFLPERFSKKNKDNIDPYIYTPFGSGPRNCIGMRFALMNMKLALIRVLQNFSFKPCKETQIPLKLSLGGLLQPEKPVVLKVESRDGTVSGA
Experimental: Determining the IC-50 for Human Liver Microsome CYP 3A4 Inhibition
Postassium Phosphate Buffer pH 7.4 (39.667 mL) is chilled in an ice bath and added to a 50 ml plastic tube. A 2 mM midazolam solution is prepared. 111.1 ul of 2 mM midazolam is added to the buffer followed by 222.2 ml of 20 mg/mL HLM (BD Gentest). The incubation mixture was gently inverted and equilibrated at 37° C. for 5 min. A stock inhibitor solution is prepared, such as in DMSO. Incubation mixture (801 ul) is added into 96-well, 1.2 mL plastic tubes. Inhibitor is added at various concentrations (e.g. 30 uM to 120 nM). The tubes are sealed and mix by inverting 5 times gently. The incubation mixture containing inhibitor (270 uL) is added by aliquot into wells of a 1 mL, 96-well block (duplicate). The block is placed into a 37° C. water bath and equilibrated for 3 min. 10 mM NADPH (30 ml) is added to all samples. After 5 minutes, the reactions are stopped by adding 300 ml of Quench Solution [0.1% TFA in CH3CN]. 1′-OH-Midazolam-d313C (2 mg/mL 30 uL) is added, the block is gently vortexed then centrifuged at 3000 rpm for 10 minutes at 4° C. 50 μL of supernatant from all samples is added by aliquot into a shorter, 96-well block. The aliquoted supernatants are pooled with other assay(s) and HPLC Grade Water (50 ul) is added to all samples. After covering and shaking by vortex gently for 2 minutes, the solutions were analyzed by LC-MS (API 3000,5% MeOH w/0.1% AcOH to 95% MeOH w/0.1% AcOH). 37 nM ketoconazole is used as a control.

[3] = biological target: T2, CYP 2D6 (Homo sapiens, UniProt P10635); experiment: Human Liver Microsome CYP 2D6 Inhibition; assay type: in vitro ADME; conditions: human liver microsomes, bufuralol substrate; read-out: inhibited CYP2D6 microsomes, IC50
T2 construct: followed by 555.6 ml of 20 mg/mL HLM (BD Gentest); tissue BD Gentest; host or cells: human liver microsomes
T2 sequence (P10635 whole entry): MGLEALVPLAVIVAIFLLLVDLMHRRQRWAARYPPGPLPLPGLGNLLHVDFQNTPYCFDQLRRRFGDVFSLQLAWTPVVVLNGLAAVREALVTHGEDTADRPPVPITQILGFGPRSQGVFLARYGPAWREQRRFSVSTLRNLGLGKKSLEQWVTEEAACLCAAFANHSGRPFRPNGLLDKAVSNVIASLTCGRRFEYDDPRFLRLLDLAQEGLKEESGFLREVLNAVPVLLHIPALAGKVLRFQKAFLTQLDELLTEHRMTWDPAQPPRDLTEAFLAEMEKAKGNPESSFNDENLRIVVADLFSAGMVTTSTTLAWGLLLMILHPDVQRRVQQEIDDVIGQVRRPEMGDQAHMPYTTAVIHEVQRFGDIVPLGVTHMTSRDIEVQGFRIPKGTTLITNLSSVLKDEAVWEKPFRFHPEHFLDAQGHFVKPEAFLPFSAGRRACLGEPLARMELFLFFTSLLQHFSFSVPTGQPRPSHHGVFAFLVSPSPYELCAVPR
Experimental: Determining the IC-50 for Human Liver Microsome CYP 2D6 Inhibition
Postassium Phosphate Buffer pH 7.4 (39.333 mL) is chilled in an ice bath and added to a 50 ml plastic tube. A 3.2 mM bufuralol solution is prepared. 111.1 ul of 3.2 mM bufuralol is added to the buffer followed by 555.6 ml of 20 mg/mL HLM (BD Gentest). The incubation mixture was gently inverted and equilibrated at 37° C. for 5 min. A stock inhibitor solution is prepared, such as in DMSO. Incubation mixture (801 ul) is added into 96-well, 1.2 mL plastic tubes. Inhibitor is added at various concentrations (e.g. 30 μM to […]). The tubes are sealed and mix by inverting 5 times gently. The incubation mixture containing inhibitor (270 μL) is added by aliquot into wells of a 1 mL, 96-well block (duplicate). The block is placed into a 37° C. water bath and equilibrated for 3 minutes. 10 mM NADPH (30 ml) is added to all samples. After 5 min, the reactions are stopped by adding 300 ml of Quench Solution [0.1% TFA in CH3CN]. 1′-OH-bufuralol-d9 (750 ng/mL 30 μL) is added, the block is gently vortexed then centrifuged at 3000 rpm for 10 min at 4° C. 50 μL of supernatant from all samples is added by aliquot into a shorter, 96-well block. The aliquoted supernatants are pooled with other assay(s) and HPLC Grade Water (50 μL) is added to all samples. After covering and shaking by vortex gently for 2 minutes, the solutions were analyzed by LC-MS (API 3000, 5% MeOH w/0.1% AcOH to 95% MeOH w/0.1% AcOH). 500 nM quinidine is used as a control.

Row | Structure (SMILES) | IC50 [2] [µM] | IC50 [3] [µM] | IC50 [1] [µM]
1 | CC(=O)N1CC(C)(C)c2ccc(NC(=O)c3cccnc3NCc3c[nH]c4ncccc34)cc21 [Example 39, N-(1-acetyl-3,3-dimethyl-2,3-dihydro-1H-indol-6-yl)-2-[(1H-pyrrolo[2,3-b]pyridin-3-ylmethyl)amino]nicotinamide] | > 20 | – | < 0.5
2 | CC1(C)CCNc2cc(NC(=O)c3cc(F)cnc3NCc3ccnc4[nH]ccc34)ccc21 [Example 82, N-(4,4-dimethyl-1,2,3,4-tetrahydro-7-quinolinyl)-5-fluoro-2-((1H-pyrrolo[2,3-b]pyridin-4-ylmethyl)amino)-3-pyridinecarboxamide] | – | > 20 | < 0.5
3 | [2H]C1([2H])CC(C)(C)c2ccc(NC(=O)c3cccnc3NCc3ccnc4[nH]ccc34)cc2N1 [Example 69, N-(2,2-Dideutero-4,4-dimethyl-1,2,3,4-tetrahydro-quinolin-7-yl)-2-[(1H-pyrrolo[2,3-b]pyridin-4-ylmethyl)-amino]-nicotinamide] | – | > 20 | < 0.5
4 | CC(=O)N1Cc2cc(NC(=O)c3cccnc3NCc3ccnc4[nH]ccc34)ccc2C(C)(C)C1 [Example 13, N-(2-Acetyl-4,4-dimethyl-1,2,3,4-tetrahydroisoquinolin-7-yl)-2-[(1H-pyrrolo[2,3-b]pyridin-4-ylmethyl)amino]nicotinamide] | – | > 20 | < 0.5
5 | CC1(C)CC(=O)Nc2cc(NC(=O)c3cc(F)cnc3NCc3ccnc4[nH]ccc34)ccc21 [Example 81, N-(4,4-dimethyl-2-oxo-1,2,3,4-tetrahydro-7-quinolinyl)-5-fluoro-2-((1H-pyrrolo[2,3-b]pyridin-4-ylmethyl)amino)-3-pyridinecarboxamide] | – | > 20 | < 0.5
6 | CC1(C)CCNc2cc(NC(=O)c3cccnc3NCc3ccnc4c3CCN4)ccc21 [Example 31, 2-[(2,3-Dihydro-1H-pyrrolo[2,3-b]pyridin-4-ylmethyl)amino]-N-(4,4-dimethyl-1,2,3,4-tetrahydroquinolin-7-yl)nicotinamide] | – | > 20 | < 0.5
7 | CC1(C)CNCc2cc(NC(=O)c3cccnc3NCc3c[nH]c4ncccc34)ccc21 [Example 38, N-(4,4-Dimethyl-1,2,3,4-tetrahydroisoquinolin-7-yl)-2-[(1H-pyrrolo[2,3-b]pyridin-3-ylmethyl)amino]nicotinamide] | – | > 20 | < 0.5

Continued, in another order:

Row | IC50 [2] [µM] | IC50 [3] [µM] | Structure (SMILES) | IC50 [1] [µM]
8 | – | > 20 | Cc1nc2cc(NC(=O)c3cc(F)cnc3NCc3ccnc4[nH]ncc34)ccc2s1 [Example 116, 5-fluoro-N-(2-methyl-1,3-benzothiazol-5-yl)-2-((1H-pyrazolo[3,4-b]pyridin-4-ylmethyl)amino)-3-pyridinecarboxamide] | < 0.5
9 | – | > 20 | CC1(C)CN(C(=O)C2CCCO2)Cc2cc(NC(=O)c3cccnc3NCc3ccnc4[nH]ccc34)ccc21 (single isomer, unassigned) [Example 14, N-{4,4-Dimethyl-2-[(2R*)-tetrahydrofuran-2-ylcarbonyl]-1,2,3,4-tetrahydroisoquinolin-7-yl}-2-[(1H-pyrrolo[2,3-b]pyridin-4-ylmethyl)amino]nicotinamide] | < 0.5
10 | – | > 20 | CC1(C)CN(S(C)(=O)=O)c2cc(NC(=O)c3cccnc3NCc3ccnc4[nH]ccc34)ccc21 [Example 61, N-(1-Methanesulfonyl-3,3-dimethyl-2,3-dihydro-1H-indol-6-yl)-2-[(1H-pyrrolo[2,3-b]pyridin-4-ylmethyl)-amino]-nicotinamide] | < 0.5
11 | > 20 | – | O=C(Nc1ccc(C(F)(F)F)cc1)c1cc(F)cnc1NCc1ccnc2[nH]ccc12 [Example 78, 5-fluoro-2-((1H-pyrrolo[2,3-b]pyridin-4-ylmethyl)amino)-N-(4-(trifluoromethyl)phenyl)-3-pyridinecarboxamide] | –
12 | > 20 | – | CC(C)Oc1ccc(NC(=O)c2cc(F)cnc2NCc2ccnc3[nH]ccc23)cc1 [Example 95, 5-fluoro-N-(4-((1-methylethyl)oxy)phenyl)-2-((1H-pyrrolo[2,3-b]pyridin-4-ylmethyl)amino)-3-pyridinecarboxamide] | –
13 | – | > 20 | CC1(C)CC(=O)Nc2cc(NC(=O)c3cccnc3NCc3ccnc4[nH]ccc34)ccc21 [Example 12, N-(4,4-Dimethyl-2-oxo-1,2,3,4-tetrahydroquinolin-7-yl)-2-[(1H-pyrrolo[2,3-b]pyridin-4-ylmethyl)amino]nicotinamide] | < 0.5
14 | – | > 20 | CC(=O)N1CC2(CC2)c2ccc(NC(=O)c3cccnc3NCc3ccnc4[nH]ccc34)cc21 [Example 7] | < 0.5
15 | – | > 20 | CC(=O)N1CC(C)(C)c2ccc(NC(=O)c3cc(F)cnc3NCc3ccnc4[nH]ccc34)cc21 [Example 80, N-(1-acetyl-3,3-dimethyl-2,3-dihydro-1H-indol-6-yl)-5-fluoro-2-((1H-pyrrolo[2,3-b]pyridin-4-ylmethyl)amino)-3-pyridinecarboxamide] | < 0.5
16 | – | > 20 | CC1(C)CCNc2cc(NC(=O)c3cccnc3NCc3c[nH]c4ncccc34)ccc21 [Example 40, N-(4,4-Dimethyl-1,2,3,4-tetrahydro-quinolin-7-yl)-2-[(1H-pyrrolo[2,3-b]pyridin-3-ylmethyl)-amino]-nicotinamide] | < 0.5
